{"source": "paper PMC9401491", "about": "“The Novel Nucleoside Analogue ProTide NUC-7738 Overcomes Cancer Resistance Mechanisms In Vitro and in a First-In-Human Phase I Clinical Trial” (Clinical Cancer Research, 2021)", "key": {"501MEL": {"tested_on": "501MEL", "experiment": "MTT cell viability, 501MEL", "type": "cell-based", "conditions": "48 h", "experimental": "(§1) Cells (10^4) were seeded into 96-well plates and then treated with NUC-7738 (lot 5132/E00393/119) or 3′-dA (cordycepin, catalog no. C3394, lot 067M4182, Sigma) for 48 hours. One and a half milligrams per milliliter MTT (catalog no. M6494, Invitrogen) in a 1:1 ratio was added to cell culture media. After a 2-hour incubation at 37°C, media was removed and 70 μl of isopropanol was added. Optical densities at 570 nm were measured using POLARstar Omega plate reader. Readouts were normalized and IC50 values were calculated using a nonlinear regression model in Graphpad prism (v8.3.0). Each biological replicate (at least 3) was performed in 4 technical replicates to calculate the average IC50 value. To measure apoptosis, the Guava NexinReagent (Luminex Corp.) was used following manufacturer's instructions. Fluorescence staining was measured with an automated 96-well Guava easyCyte Flow Cytometer (Luminex Corp.)."}, "[1]": {"design": "method as in earlier work", "conditions": "patients, particularly immunotherapy-resistant melanoma; cited from earlier work"}, "NCI-786": {"tested_on": "NCI-786", "experiment": "MTT cell viability, NCI-786", "type": "cell-based", "conditions": "48 h", "experimental": "as §1"}, "[2]": {"experiment": "Beagle dog 4-week toxicology and toxicokinetics"}, "AGS": {"tested_on": "AGS", "experiment": "MTT cell viability, AGS", "type": "cell-based", "conditions": "Homo sapiens, 48 h", "experimental": "as §1"}, "SK-OV3": {"tested_on": "SK-OV3", "experiment": "MTT cell viability, SK-OV3", "type": "cell-based", "conditions": "Homo sapiens, SK-OV-3, 48 h", "experimental": "as §1"}, "NF-κB": {"tested_on": "NF-κB", "experiment": "NF-κB SEAP reporter and p65 fractionation in THP-1 cells", "type": "cell-based", "experimental": "Cells were harvested and lyzed using RIPA lysis and extraction buffer (Thermo Scientific) following manufacturer's protocol. Twenty to 30 μg of total protein lysates was loaded on Mini-PROTEAN TGX precast gels (Bio-Rad). Separated proteins were transferred to a polyvinylidene difluoride (PVDF) membrane using Trans-Blot Turbo Transfer System (Bio-Rad) followed by incubation with primary and horseradish peroxidase (HRP)–conjugated secondary antibodies [anti-mouse, catalog no. 7076S, Cell Signaling Technology (CST) or anti-rabbit, catalog no. 7074S, CST] and ECL Prime Western blotting (GE Healthcare) detection. For fractionation, cells were grown in 10-cm tissue culture plates and treated with 30 or 60 μmol/L of 3′-dA or NUC-7738 for 6 hours. Cells were grown in 10-cm tissue culture plates and fractionated using the Nuclear Extraction Kit (Abcam) following manufacturer's instructions. Twenty-five micrograms of each fraction was used for Western blot (WB) detection. NF-κB p65 antibody (catalog no. 8242, CST), nuclear marker Lamin B1 (catalog no. ab16048, Abcam), cytosolic GAPDH (catalog no. 97166, CST), cleaved PARP (catalog no. 9541, CST), and Actin (MAB1501, Merck) were used.\nFigure 5. […] C, NF-κB activity was measured using the SEAP reporter gene assay in THP-1 cells. […] SEAP production as result of NF-κB activity was measured using the QuantiBlue colorimetric enzyme assay. […]"}, "786-O": {"tested_on": "786-O", "experiment": "IC50 in renal cancer cell line 786-O", "type": "cell-based", "conditions": "Homo sapiens, 786-0"}, "HINT1 KO HAP1 cells": {"tested_on": "HINT1 KO HAP1 cells", "experiment": "Sensitivity of HINT1 CRISPR/Cas9 knockout HAP1 cells", "type": "cell-based, human", "conditions": "HAP1 polyclonal and clonal HINT1 KO vs WT", "experimental": "Cells were transfected with stealth siRNA (catalog no. HSS104782, catalog no. HSS104784, catalog no. HSS179235; ThermoFisher) targeting HINT-1 using Lipofectamine RNAiMAX (Invitrogen) following the manufacturer's protocol. At 48 hours posttransfection, cells were treated and cell viability was measured 96 hours posttransfection as described above. Samples for Western blot analysis were harvested 48 hours posttransfection. For gene-depletion experiments, approximately 4 × 10^5 HAP1 cells were seeded per well in a 6-well plate and grown to approximately 50% confluency. After 24 hours, cells were transfected with lentiCRISPR v2 plasmid (GenScript) containing a guide RNA (gRNA) targeting gene of interest using Turbofectin (catalog no. TF81001, OriGene) according to manufacturer's instruction. The following sequences were used: HINT-1 CRISPR gRNA 2 ([…]) and NUDT2 CRISPR gRNA 2 ([…]). At 24 hours posttransfection, positively transfected cells were selected using […] puromycin for 72 hours. After selection, surviving colonies were expanded and used for downstream analysis. For clonal selection, clones were selected using limited dilution and expanded into a 6-well plate for Western blot screening.\nHAP1 cells were seeded at a density of 10,000 cells per well in 6-well plates and indicated drug concentrations were added. […]"}, "[3]": {"design": "method as in PMID 22833171, PMID 24419340", "conditions": "human serum; cited from earlier work"}, "[4]": {"design": "method as in PMID 22833171, PMID 24419340", "conditions": "rat serum; cited from earlier work"}, "CAKI-1": {"tested_on": "CAKI-1", "experiment": "MTT cell viability, CAKI-1", "type": "cell-based", "conditions": "Homo sapiens, CAKI-1, 48 h", "experimental": "as §1"}, "cancer cell lines": {"tested_on": "cancer cell lines", "experiment": "IC50 across a wide set of cancer cell lines", "type": "cell-based", "experimental": "as §1"}, "UM-RC-2": {"tested_on": "UM-RC-2", "experiment": "IC50 in renal cancer cell line UM-RC-2", "type": "cell-based", "conditions": "UMRC2"}}, "note": "Like-named read-outs stand apart in the source and are kept apart here.", "data": [{"smiles": "C[C@H](NP(=O)(OC[C@@H]1C[C@@H](O)[C@H](n2cnc3c(N)ncnc32)O1)Oc1ccccc1)C(=O)OCc1ccccc1", "note": "(stereo partly drawn) [NUC-7738, 3′-deoxyadenosine-5′-O-phenyl-(benzyloxy-L-alaninyl)-phosphate]", "values": [{"measurement": "IC50", "setting": "501MEL", "result": 10.9, "unit": "µM"}, {"measurement": "antitumor activity", "setting": "[1]", "result": "Encouraging signals of antitumor activity and prolonged disease stabilization"}, {"measurement": "IC50", "setting": "NCI-786", "result": 49.5, "unit": "µM"}, {"measurement": "mean AUC(0-t)", "setting": "[2]; 10 mg/kg/day, sex mean at day 26", "result": 638, "unit": "ng/h/mL"}, {"measurement": "toxicology findings", "setting": "[2]; 20 mg/kg/day, iv slow injection, 4 cycles", "result": "induced changes in the liver and bone marrow"}, {"measurement": "systemic exposure (mean Cmax and AUC 0-t), single vs repeated administrations", "setting": "[2]; all doses, significance >2-fold change", "result": "No significant differences"}, {"measurement": "Tmax", "setting": "[2]; both, beagle, plasma, iv", "result": 15, "unit": "min"}, {"measurement": "clearance", "setting": "[2]; both, beagle, plasma, iv", "result": "245 to 533", "unit": "mL/min/kg"}, {"measurement": "half-life", "setting": "[2]; both, beagle, plasma, iv", "result": "13.2 to 27.6", "unit": "min"}, {"measurement": "Cmax", "setting": "[2]; both, beagle, plasma, iv, 10 mg/kg/day", "result": 1560, "unit": "ng/mL"}, {"measurement": "highest nonseverely toxic dose (HNSTD)", "setting": "[2]; iv, 4 cycles (4 weeks)", "result": 10, "unit": "mg/kg/day"}, {"measurement": "IC50", "setting": "AGS", "result": 11.2, "unit": "µM"}, {"measurement": "IC50", "setting": "SK-OV3", "result": 16.6, "unit": "µM"}, {"measurement": "nuclear translocation of NF-κB", "setting": "NF-κB; NF-κB THP1 reporter cell line, LPS, fractionation and Western blot", "result": "a reduction in the nuclear translocation of NF-κB"}, {"measurement": "NF-κB activation", "setting": "NF-κB; THP-1 SEAP reporter, LPS induced", "result": "significantly reduced NF-κB activation"}, {"measurement": "IC50", "setting": "786-O", "result": 13, "unit": "µM"}, {"measurement": "sensitivity after depletion of HINT1", "setting": "HINT1 KO HAP1 cells", "result": "markedly reduced sensitivity"}, {"measurement": "half-life in serum", "setting": "[3]", "result": 424, "unit": "min"}, {"measurement": "half-life in serum", "setting": "[4]", "result": "less than 2 minutes"}, {"measurement": "IC50", "setting": "CAKI-1", "result": 33, "unit": "µM"}, {"measurement": "IC50", "setting": "cancer cell lines; read-out: IC50 in the low μM range", "result": "< 10", "unit": "µM"}, {"measurement": "IC50", "setting": "cancer cell lines; read-out: mean IC50", "result": 18.8, "unit": "µM"}, {"measurement": "IC50", "setting": "UM-RC-2", "result": 4, "unit": "µM"}]}]}
